Patent US8173145B2, “Formulation containing phosphate derivatives of electron transfer agents” (Vital Health Sciences Pty. Ltd., priority 2000, dated 2012)

Assay: foam stability / surface active properties test
Type: physicochemical
Conditions: 0.1 g in 10 ml distilled water, shaken; foam examined daily over four days
Experimental: 0.1 g of pure di-sodium mono-tocopheryl phosphate was dissolved in 10 ml of pure distilled water in a 50 ml cylindrical stoppered vessel.

Foam stability: complete stability for one day
SMILES: Cc1c(C)c2c(c(C)c1OP(=O)([O-])[O-])CC[C@@](C)(CCC[C@H](C)CCC[C@H](C)CCCC(C)C)O2.[Na+].[Na+] [di-sodium mono-tocopheryl phosphate]
